The source of these data is US6630483B2, “Phenanthridine-N-oxides” (Altana Pharma AG, priority 2000, dated 2003).

Structures are written as SMILES.

In one data set the test system is PDE IV. Description: Inhibition of PDE4 activity (method of Bauer and Schwabe, microtiter plates). The class given is biochemical. The text has this: The activity test can be carried out, for example, according to the method of Bauer and Schwabe. For this, the method is adapted to microtiter plates (Naunyn-Schmiedeberg's Arch. Pharmacol. 1980, 311, 193-198). The PDE reaction takes place in the first step here. In a second step, the resulting 5′-nucleotide is cleaved by a 5′-nucloetidase of the snake venom of Crotalus atrox to the uncharged nucleoside. In the third step, the nucleoside is separated from the remaining charged substrate on ion-exchange columns. The columns are eluted directly into minivials, into which 2 ml of scintillator fluid are additionally added for counting, using 2 ml of 30 mM ammonium formate (pH 6.0).

The term melting point denotes the temperature, or range, at which the solid turns liquid. Turning to `COc1cc2c(cc1OC)[C@@H]1CCCC[C@@H]1[N+]([O-])=C2c1ccc(S(C)(=O)=O)cc1` [Compound 1, (−)-cis-8,9-Dimethoxy-6-(4-methanesulfonylphenyl)-1,2,3,4,4a,10b-hexahydrophenanthridine-N-oxide], the melting point is 229 to 231 °C. Besides, in the data set with PDE IV, the “-log IC50” value turned out to be 6.09.
